Entries after “also recorded” stand apart in the source; their conditions may differ.

The text below walks through data of patent US9095541B2, “Brain tumor targeting peptides and methods” (Arch Cancer Therapeutics, Inc., priority 2009, dated 2015).

Experiment [1] has as its system BTIC lines (neurospheres). Kind of experiment: Staining with biotin-labeled synthetic peptide, confocal, BTIC neurospheres. It counts as binding, human. Particulars: neurospheres stained in suspension. How it is done: (§1) Binding specificity of the 7A peptide was assessed with non-target (U87MG; NSC) and target (BTIC) cells using a biotinylated 7A peptide (red) followed by confocal imaging.
(§2) To confirm the preferential binding of 7A to the BTICs rather than the cells used for subtraction, neurospheres and U87MG cells were stained in suspension with biotin-labeled synthetic peptide. […] Examination of the interaction of all selected peptides across a panel of BTIC lines underscored the heterogeneity within each cell population, and established a platform for correlating the ability to bind particular peptide sequences with either cell behavior or patient outcome.
(§3) Adherent cells: 13 mm coverslips were coated with neutralized 3 mg/mL Collagen I (PureCol), allowed to dry, then plated with test cells at 1×10^4/mL, 0.5 mL volume and allowed to equilibrate 20 minutes under normal culture conditions. Coverslips were fixed for 10 minutes in 3% formaldehyde in PBS, washed, then incubated in biotinylated peptide (3 mM stock) or primary antibody at a 1:100 dilution in 2% BSA/0.02% Tween 20 in PBS for 1 hour at room temperature. After washing in PBS, secondary antibody or streptavidin-Alexa 568 was applied at a dilution of 1:250 for 1 hour before coverslips were washed and mounted with DAKO mounting media with antifade. […]

The next experiment relates to U87MG cells. In words: Staining with biotin-labeled synthetic peptide, confocal, U87MG. It counts as binding, human. How it is done: as §1, §2, §3
A further experiment deals with U87R (HIGC) cells. In words: Peptide binding to U87R cells. Set-up: species or system human.
The subject of another experiment is U87T (main tumor) cells. Kind of experiment: Peptide binding to U87T cells. Further details: species or system human.
Experiment [2] has as its system implanted GBM tumor from the U87MG cell line. In words: In vivo targeting of fluorescent peptide to implanted U87MG tumor, fluorescence microscopy of brain sections. Set-up: species or system mice. How it is done: (§4) In the studies shown in FIGS. 13A and 13B, brain tumors were implanted in mice with a patient-derived BTIC cell line BT025 identified as above by its binding to the 7A peptide. After tumor growth from the implanted cells, the tumors were removed, sectioned and stained for microscopic visualization. In the studies shown in FIGS. 14-19, a fluorescent peptide was administered intravenously, either by intracorotid injection or via tail vein into mice having an implanted GBM tumor from the BT025 cell line (FIGS. 14-17) or the U87MG cell line (FIGS. 18 and 19), and after localization of the peptide, the animal were sacrificed and their brain tumors removed for sectioning and visualization by fluorescence microscopy.
FIGS. 18A and 18B-18D show similar views, where the animal was injected with a fluorescently labeled modified H10 peptide (SEQ ID NO: 17, preferential for HIGC binding), in animals carrying a tumor initiated with the U87MG human glioblastoma cell line. For these studies, the tumors were not grown as large, and a far-red fluorescent signal is not obvious from inspection without sectioning (FIG. 18A).
FIGS. 19A and 19B and 19D show similar views, where the animal was injected with a fluorescently labeled modified E10 peptide (SEQ ID NO: 13, which binds to both BTIC's and HIGC's), in animals carrying a tumor initiated with the U87MG human glioblastoma cell line. […]

Experiment [3] deals with BTIC isolates (BTIC 12, 25, 42, 50). In words: Biopanning of phage display library against a mixture of BTIC isolates, sequencing of subclones. Particulars: BTIC-binding phage subclones; given as n/50 subclones screened.
For a further experiment, the system named is U87R cells. Kind of experiment: Subtractive/selective biopanning of Ph.D.-12 phage display library against U87R cells, sequencing of subclones. Further details: species or system human. Particulars: given as n/100. The method, then: The present inventors have earlier described an in vivo selection for a population of human glioma cells that were highly invasive (U87R). In order to isolate peptides that could bind specifically to these highly invasive glioma cells, a biopanning experiment using a combinatorial phage display library was employed. Initially subtractive biopanning was performed with the U87 cells that were non-invasive (U87T) followed by selective biopanning with the U87R cells to isolate a library of phage (FIG. 1A) that were confirmed to preferentially interact with U87R cells by whole-cell ELISA (FIG. 1B).
Biopanning was performed as described in [61]. Subtraction cells (e.g. U87T) were released from tissue culture plastic with Puck's EDTA, and after washing with PBS, 1×10^7 cells were resuspended in 1% BSA in PBS with 1.5×10^11 pfu of Ph.D.-12 M13 Phage Library (New England Biolabs). The cells and phage were incubated in an eppendorf tube for 1 hour at room temperature with gentle shaking, before pelleting the cells and retaining the supernatant, which was transferred to a fresh tube with another aliquot of subtraction cells. The incubation and transfer of supernatant was performed three times, with the supernatant being transferred to an empty tube on the last round. Selection cells were released from tissue culture plastic with Puck's EDTA (e.g. U87R cells) and washed in PBS. 5×10^6 cells were resuspended in the 3× subtracted supernatant and incubated for 4 hours at 4° C. with slow shaking. The cell pellet was washed 5× in cold 1% BSA/0.1% Tween 20 in PBS five times, changing the tube after each wash. Bound phage were eluted by rocking the cells gently for 10 minutes at 4° C. in 1 mL of 0.2M Glycine-HCl pH 2.2 with 1 mg/mL BSA, and the supernatant was immediately neutralized with 150 μL of 1M Tris-HCl pH 9.1. The final library was amplified as per manufacturer's protocol.

The test system of experiment [4] is implanted GBM tumor from the BT025 cell line. Kind of experiment: In vivo targeting of fluorescent peptide to implanted BT025 tumor, fluorescence microscopy of brain sections. Further details: species or system mice. Particulars: for distribution of fluorescent peptide signal in brain sections: BT025 tumor, intracarotid injection; for localization of peptide conjugate in human GBM tissue in vivo (summary): intravenous administration, BT025 tumor (general statements also cover U87MG tumors). How it is done: as §4
The peptide was administered to the mouse via intracarotid injection and allowed to circulate for approximately half an hour to allow clearance of background signal before the mouse was sacrificed and the brain removed for imaging using an Olympus OV100 whole mouse imaging system. By non-magnified inspection, the large outgrowth of the tumor is obvious.
FIGS. 14B and 14C are lower and higher magnification photomicrographs of a thin section taken from the brain in FIG. 14A after it was bisected close to the tumor implantation site and stained for human nuclear antigen (green) and total DNA (blue) to outline the positioning of the cells. The red peptide signal is visible on cells immediately adjacent to the main tumor mass as well as spread diffusely in the surrounding tissue.

The subject of experiment [5] is U87MG cells transfected with p75^NTR. In words: Transwell migration assay, p75NTR-transfected U87MG. The format is cell-based, human. Particulars: in vitro invasion assay. How it is done: The membranes of 8 μm pore sized transwell inserts (Corning Costar) were coated with brain-like matrix (720 μL of 3 mg/mL collagen I (PureCol); 180 μL of 10×DMEM (Invitrogen); 9 uL of 1 mg/mL human plasma fibronectin (Sigma); 9 uL of 1 mg/mL chondroitin sulfate proteoglycans (Chemicon); 16 μL of 0.15 mg/mL laminin (Chemicon)) on both sides, allowed to dry, then plated with 5×10^4 cells in 100 μL media in the upper chamber and 500 μL media in the lower chamber. Inclusion of collagen was essential to see the inhibitory effect of H10 (FIG. S4). 3×10^10 pfu of test phage were added to the upper chambers containing the cells, which were incubated for 4 hours under normal culture conditions. At the end of the incubation, the media was aspirated and the cells were fixed and stained in 1% crystal violet in 95% ethanol for one minute. Transwells were rinsed in PBS, then cells on the upper membrane surfaces were removed with a cotton swab. Cells which had migrated to the undersurface of the membranes were counted by light microscopy, and the sum of cells in five microscopic fields was recorded for each membrane.

For the substance “SLHMRHKRKPRR (synthetic BTIC targeting peptide) [E10]”, in experiment [1], the “binding of peptide to BTICs” value was “binds”. Moreover, the “binding of peptide to U87MG cells” value with U87MG cells was “binds”. Further, the “binding to U87R (HIGC) cells” value with U87R (HIGC) cells is “bind”. Moreover, the “binding to U87T (main tumor) cells” value in the experiment on U87T (main tumor) cells is given as “bind”. For the same substance, in experiment [2] (intracarotid injection), the “distribution of fluorescent peptide signal in brain sections” value (“distribution” below) was “binds to a portion of cells within the main tumor mass; also recorded: also binds to cells outside of the main tumor mass”. Also, the “localization of peptide conjugate in human GBM tissue in vivo (summary)” value (“localization of peptide conjugate” below) in [2] (intravenous administration) is reported as “can localize in human GBM tissue in vivo”. The “number of phage subclones containing that sequence” value in experiment [3] is recorded as 4/50.

As to “HWAPSMYDYVSW (synthetic HIGC targeting peptide) [M5]”, the “number cell-binding phages containing that sequence” value in the experiment on U87R cells is 7/100.

For “SVSVGMKPSPRP (synthetic HIGC targeting peptide) [A2]”, the “number cell-binding phages containing that sequence” value in the experiment with U87R cells is given as 21/100.

“QTIRIIIRRSRT (synthetic BTIC targeting peptide) [10C]”: the “number of phage subclones containing that sequence” value in experiment [3] is 6/50.

On to “GISLSSYLQSTQ (synthetic HIGC targeting peptide) [M32]”, for which the “number cell-binding phages containing that sequence” value in the experiment on U87R cells was 20/100.

For “GMSLSRQMLWSL (synthetic HIGC targeting peptide) [F2]”, in the experiment on U87R cells, the “number cell-binding phages containing that sequence” value is recorded as 2/100.

With “RTVPDYTAHVRT (synthetic HIGC targeting peptide) [M43]”, the “number cell-binding phages containing that sequence” value in the experiment with U87R cells is 5/100.

Consider “IRSIRMRRILIL (synthetic BTIC targeting peptide) [C1]”, for which the “number of phage subclones containing that sequence” value in experiment [3] is given as 2/50.

“HLFPQSNYGGHS (synthetic HIGC targeting peptide) [M24]”: the “number cell-binding phages containing that sequence” value with U87R cells is 2/100.

With CIQLANPPRLXG [M23], the “number cell-binding phages containing that sequence” value with U87R cells is given as 2/100.

Regarding “EHMALTYPFRPP (synthetic HIGC targeting peptide) [C12]”, the “number cell-binding phages containing that sequence” value with U87R cells is given as 13/100.

Consider “KTSMRPLILIHI (synthetic BTIC targeting peptide) [3B]”, for which, in experiment [4], the “distribution” value is “binds to cells that are both within and outside the main tumor mass”; the “localization of peptide conjugate” value is “can localize in human GBM tissue in vivo”. The “number of phage subclones containing that sequence” value in experiment [3] is 2/50.

For methyl-β-cyclodextran, the “cell migration of U87p75 glioma cells” value in experiment [5] was “significantly inhibited cell migration”.

“SSRSMQRTLIIS (synthetic BTIC targeting peptide) [3F]”: in experiment [4], the “distribution” value is reported as “most of the red signal appears outside of the main tumor mass” and the “localization of peptide conjugate” value was “can localize in human GBM tissue in vivo”. Moreover, the “number of phage subclones containing that sequence” value in experiment [3] was 2/50.

Take “SGHQLLLNKMPN (synthetic HIGC targeting peptide) [M19]”: the “number cell-binding phages containing that sequence” value with U87R cells is 4/100.
